According to patent US20260199484A1, “PROTAC DEGRADERS OF MLLT1 AND/OR MLLT3” (DARK BLUE THERAPEUTICS LTD, priority 2024, published 2026):

Columns and labels:
[1] = molecular target: T1, MLLT1 (Homo sapiens, UniProt Q03111); experiment: MLLT1 degradation assay in MV4-11 cells (JESS, 24 h); type: cell-based; design: endogenous in cells; host or cells: MV4-11 (ATCC CRL-9591); details: vs DMSO control
T1 sequence (Q03111 1-559): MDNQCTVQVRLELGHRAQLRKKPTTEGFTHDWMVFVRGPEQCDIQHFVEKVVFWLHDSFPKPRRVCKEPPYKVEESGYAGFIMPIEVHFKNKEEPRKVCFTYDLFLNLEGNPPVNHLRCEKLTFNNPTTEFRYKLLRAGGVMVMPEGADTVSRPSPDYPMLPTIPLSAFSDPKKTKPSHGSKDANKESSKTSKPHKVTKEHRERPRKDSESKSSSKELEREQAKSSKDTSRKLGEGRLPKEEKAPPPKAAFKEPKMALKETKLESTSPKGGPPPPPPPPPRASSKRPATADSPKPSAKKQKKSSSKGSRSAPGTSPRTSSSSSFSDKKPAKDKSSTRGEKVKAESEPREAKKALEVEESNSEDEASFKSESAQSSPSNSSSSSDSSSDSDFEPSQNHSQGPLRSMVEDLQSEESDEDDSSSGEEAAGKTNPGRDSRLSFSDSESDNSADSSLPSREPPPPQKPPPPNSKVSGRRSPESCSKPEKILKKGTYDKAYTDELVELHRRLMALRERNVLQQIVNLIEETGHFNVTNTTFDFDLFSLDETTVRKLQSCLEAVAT
Method in brief: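 MV4-11 cells treated at 1000, 100 and 10 nM (0.1% DMSO) for 24 h at 37° C; lysates (4 ug protein) run on JESS capillary immunoassay with MLLT1 and GAPDH antibodies. Peak areas give % degradation versus DMSO, binned A (≥75%) to D (<25%).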

[2] = system: MV4-11 cells; experiment: MV4-11 cellular proliferative assay, Assay Format A (CellTiter-Glo, 120 h); type: cell-based; details: Homo sapiens, Assay format A, 120 h, read-out: IC50 (MV4-11 cellular proliferative assay)
Protocol: An MV4-11 proliferation assay was used to test the ability of compounds to reduce cell viability. MV4-11 cells (ATCC #CRL9591) were grown in IMDM medium (11510596, Gibco) supplemented with 10% fetal bovine serum (F7524, Gibco) and 1% Penicillin/Streptomycin (15140-122, Gibco) at 37° C. with 5% CO2. Cells were seeded in 384-well Elplasia plates (4447, Corning) at a density of 50 cells/well and treated with vehicle (DMSO) or compounds (10 serial semi-log dilutions, 30 μM as top concentration).
After 120 hours of treatment, cells were incubated for 10 min at RT with the CellTiter-Glo (CTG) reagent (G7571, Promega). Measurement of the luminescence signal was performed on a microplate reader (Ensight, PerkinElmer). CTG reagent measures the amount of ATP, which is directly proportional to the number of cells, to determine the number of viable cells in culture.
The data were analysed as follows:
[formula] • where x is the measured raw signal value of a well, (cr) is the median of the measured signal values for the Central Reference (DMSO) wells on a plate, (sr) is the median of the measured signal values for the Scale Reference (reference compound) wells on a plate.
[formula] • where the experimental set-up assumes the Hill parameters in certain ranges: S0~Central Reference (CR) from normalization (=Bottom), Sinf~Scale Reference (SR) from normalization (=Top), nHill ~1, AC50~within the measured concentration range.

Row | SMILES | MLLT1% Degradation @ 0.01 μM [1] | MLLT1% Degradation @ 0.1 μM [1] | MLLT1% Degradation @ 1 μM [1] | IC50 [2]
1 | Cc1nn(CCCC#Cc2cccc3c2CN(C2CCC(=O)NC2=O)C3=O)c2cc(C(=O)Nc3cc4[nH]c([C@H]5CCCN5C)cc4cn3)ccc12 (stereo partly drawn) [Example 32, 1-(5-(2-(2,6-dioxopiperidin-3-yl)-1-oxoisoindolin-4-yl)pent-4-yn-1-yl)-3-methyl-N-(2-((R)-1-methylpyrrolidin-2-yl)-1H-pyrrolo[3,2-c]pyridin-6-yl)-1H-indazole-6-carboxamide] | B (Category B: 50%≤B<75% degradation) | A (Category A: A≥75% degradation) | B (Category B: 50%≤B<75% degradation) | < 100 nM
2 | Cc1nn(CCCCCC#Cc2cccc3c2C(=O)N(C2CCC(=O)NC2=O)C3=O)c2cc(C(=O)Nc3cc4[nH]c([C@H]5CCCN5C)cc4cn3)ccc12 (stereo partly drawn) [Example 33, 1-(7-(2-(2,6-dioxopiperidin-3-yl)-1,3-dioxoisoindolin-4-yl)hept-6-yn-1-yl)-3-methyl-N-(2-((R)-1-methylpyrrolidin-2-yl)-1H-pyrrolo[3,2-c]pyridin-6-yl)-1H-indazole-6-carboxamide] | B (Category B: 50%≤B<75% degradation) | B (Category B: 50%≤B<75% degradation) | A (Category A: A≥75% degradation) | < 100 nM
3 | CN1CCC[C@@H]1c1cc2cnc(NC(=O)c3ccc4c(cnn4CCCCCCCC#Cc4cccc5c4CN(C4CCC(=O)NC4=O)C5=O)c3)cc2[nH]1 (stereo partly drawn) [Example 38, 1-(9-(2-(2,6-dioxopiperidin-3-yl)-1-oxoisoindolin-4-yl)non-8-yn-1-yl)-N-(2-((R)-1-methylpyrrolidin-2-yl)-1H-pyrrolo[3,2-c]pyridin-6-yl)-1H-indazole-5-carboxamide] | B (Category B: 50%≤B<75% degradation) | A (Category A: A≥75% degradation) | B (Category B: 50%≤B<75% degradation) | < 100 nM
4 | Cc1nn(CCCCC#Cc2cccc3c2CN(C2CCC(=O)NC2=O)C3=O)c2cc(C(=O)Nc3cc4[nH]c([C@H]5CCCN5C)cc4cn3)ccc12 (stereo partly drawn) [Example 46, 1-(6-(2-(2,6-dioxopiperidin-3-yl)-1-oxoisoindolin-4-yl)hex-5-yn-1-yl)-3-methyl-N-(2-((R)-1-methylpyrrolidin-2-yl)-1H-pyrrolo[3,2-c]pyridin-6-yl)-1H-indazole-6-carboxamide] | A (Category A: A≥75% degradation) | A (Category A: A≥75% degradation) | B (Category B: 50%≤B<75% degradation) | < 100 nM
5 | Cc1nn(CCCCCN2CCN(c3cccc4c3C(=O)N(C3CCC(=O)NC3=O)C4=O)CC2)c2cc(C(=O)Nc3cc4[nH]c([C@H]5CCCN5C)cc4cn3)ccc12 (stereo partly drawn) [Example 47, 1-(5-(4-(2-(2,6-dioxopiperidin-3-yl)-1,3-dioxoisoindolin-4-yl)piperazin-1-yl)pentyl)-3-methyl-N-(2-((R)-1-methylpyrrolidin-2-yl)-1H-pyrrolo[3,2-c]pyridin-6-yl)-1H-indazole-6-carboxamide] | D (Category D: D<25% degradation) | D (Category D: D<25% degradation) | B (Category B: 50%≤B<75% degradation) | < 100 nM
6 | CCN1CCC[C@@H]1c1cc2cnc(NC(=O)c3ccc4c(C)nn(CCCCCCCC#Cc5cccc6c5CN(C5CCC(=O)NC5=O)C6=O)c4c3)cc2[nH]1 (stereo partly drawn) [Example 48, 1-(9-(2-(2,6-dioxopiperidin-3-yl)-1-oxoisoindolin-4-yl)non-8-yn-1-yl)-N-(2-((R)-1-ethylpyrrolidin-2-yl)-1H-pyrrolo[3,2-c]pyridin-6-yl)-3-methyl-1H-indazole-6-carboxamide] | C (Category C: 25%≤C<50% degradation) | B (Category B: 50%≤B<75% degradation) | A (Category A: A≥75% degradation) | < 100 nM

The remaining lines, values ahead:

Row | MLLT1% Degradation @ 0.01 μM [1] | MLLT1% Degradation @ 0.1 μM [1] | MLLT1% Degradation @ 1 μM [1] | IC50 [2] | SMILES
7 | A (Category A: A≥75% degradation) | A (Category A: A≥75% degradation) | A (Category A: A≥75% degradation) | < 100 nM | CN1CCC[C@@H]1c1cc2cnc(NC(=O)c3ccc4c(cnn4CCCCCCCCNc4cccc5c4C(=O)N(C4CCC(=O)NC4=O)C5=O)c3)cc2[nH]1 (stereo partly drawn) [Example 36, 1-(8-((2-(2,6-dioxopiperidin-3-yl)-1,3-dioxoisoindolin-4-yl)amino)octyl)-N-(2-((R)-1-methylpyrrolidin-2-yl)-1H-pyrrolo[3,2-c]pyridin-6-yl)-1H-indazole-5-carboxamide]
8 | B (Category B: 50%≤B<75% degradation) | A (Category A: A≥75% degradation) | A (Category A: A≥75% degradation) | < 100 nM | Cc1nn(CCCCCCCC#Cc2cccc(C(=O)N[C@H]3CCC(=O)NC3=O)n2)c2cc(C(=O)Nc3cc4[nH]c([C@H]5CCCN5C)cc4cn3)ccc12 [Example 42, 1-(9-(6-(((S)-2,6-dioxopiperidin-3-yl)carbamoyl)pyridin-2-yl)non-8-yn-1-yl)-3-methyl-N-(2-((R)-1-methylpyrrolidin-2-yl)-1H-pyrrolo[3,2-c]pyridin-6-yl)-1H-indazole-6-carboxamide]
9 | B (Category B: 50%≤B<75% degradation) | A (Category A: A≥75% degradation) | A (Category A: A≥75% degradation) | < 100 nM | [2H]C([2H])([2H])N1CCC[C@@H]1c1cc2cnc(NC(=O)c3ccc4c(C)nn(CCCCCCCC#Cc5cccc6c5CN(C5CCC(=O)NC5=O)C6=O)c4c3)cc2[nH]1 (stereo partly drawn) [Example 44, 1-(9-(2-(2,6-dioxopiperidin-3-yl)-1-oxoisoindolin-4-yl)non-8-yn-1-yl)-3-methyl-N-(2-((R)-1-(methyl-d3)pyrrolidin-2-yl)-1H-pyrrolo[3,2-c]pyridin-6-yl)-1H-indazole-6-carboxamide]
10 | A (Category A: A≥75% degradation) | A (Category A: A≥75% degradation) | A (Category A: A≥75% degradation) | < 100 nM | Cc1nn(CCCCCCC#Cc2cccc3c2CN(C2CCC(=O)NC2=O)C3=O)c2cc(C(=O)Nc3cc4[nH]c([C@H]5CCCN5C)cc4cn3)ccc12 (stereo partly drawn) [Example 45, 1-(8-(2-(2,6-dioxopiperidin-3-yl)-1-oxoisoindolin-4-yl)oct-7-yn-1-yl)-3-methyl-N-(2-((R)-1-methylpyrrolidin-2-yl)-1H-pyrrolo[3,2-c]pyridin-6-yl)-1H-indazole-6-carboxamide]
